Columns and labels:
[1] = tested on: MDA-MB-231 human breast cancer cells; experiment: Transwell cell migration assay; format: cell-based; conditions: MDA-MB-231 cells, 18-20 hr
Experimental: (§1) MDA-MB-231 cells were grown in McCoy's 5A Modified Media (Gibco) supplemented with 10% FBS (Hyclone). Py8119 cells were grown in F12K nutrient media (Gibco) supplemented with 5% Fetal Clone II (Fisher Scientific). All cell lines were incubated in a 5% CO2 incubator at 37° C.
Migration assays were performed in transwell membrane filter inserts in 24-well tissue culture plates (BD Biosciences San Jose, Calif., USA). The transwell membrane filter inserts contained 6.5-mm diameter, 8-μm pore size, […] polycarbonate membranes. Five-hundred microliter breast cancer cell suspensions were added to the upper side of the inserts at a density of 10×10^4 cells/insert and 750 μl CM with or without other compounds was added to the lower wells. Cells were incubated at 37° C. for 18-20 hr. […] The number of migrated cells in 5 fields of view per insert was counted under a light microscope at magnification 10×.

MDA-MB-231 cells [2] = experiment: Soft agar colony formation assay (anchorage independent cell growth); format: cell-based, human; conditions: 50 μM compound, about 2 weeks
Experimental: as §1
For anchorage-independent cell growth, MDA-MB-231 cells were plated in 0.4% agarose with complete medium supplemented with 50 μM compound (P1 to P10) on top of a 0.8% agarose base supplemented with complete medium. Cells were maintained for about 2 weeks before staining with p-iodonitrotetrazolium violet (Sigma-Aldrich, St. Louis, Mo.). Images were captured by using a scanner and the numbers of colonies were counted.

MDA-MB-231 cells [3] = experiment: Mammary fat pad xenograft assay; format: in vivo; conditions: after 15 days; 500 μl of a 400 μM solution, IP three times a week; MDA-MB-231 xenograft in nude mice
Excerpt: Four-week-old female athymic nude mice (Harlan Sprague-Dawley, Indianapolis, Ind., USA) were used for the mammary fat pad injections. Four- to five-week old female C57bl/6 mice were used for the intratibial injections. Animals were maintained under the care and supervision of the Laboratory Animal Research facility at the University of Texas Health Science Center, San Antonio, Tex. The animal protocol was approved and monitored by the Institutional Animal Care and Use Committee.
MDA-MB-231 cells were injected subcutaneously in the mammary fat pad of 4-week-old female nu/nu athymic nude mice. Each mouse received bilateral subcutaneous inoculation in both the left and right inguinal mammary fat pad areas with 100 μl of cell suspension containing ˜1×10^7 cells/ml in serum-free media. Animals were randomly assigned to 3 different groups, and solid tumors were allowed to form up to about 5 mm^3 volume before treatments began. Compound P3 400 μmol/500 μl saline, or saline as a control was administered intraperitoneally (IP) three times a week for 3 weeks. The growth of xenograft tumors was monitored twice a week and tumor size was measured with a caliper in two dimensions. Tumor volumes were calculated with the equation V=(L×W^2)×0.5 (mm^3), where L is length and W is width of a tumor.

Row | SMILES | inhibitory effects on cell migration [1] | decrease in cell colonies as compared to control (MDA-MB-231 cells [2]) [%] | reduction in the tumor size compared to control mice (MDA-MB-231 cells [3])
1 | CCCn1c(=O)c2nc(-c3ccc(OCc4nc5ccccc5[nH]4)cc3)[nH]c2n(CCC)c1=O [Compound P2] | inhibitory effects | 30 | 
2 | CCCn1c(=O)c2nc(-c3ccc(OCc4nc5cc(C(F)(F)F)ccc5[nH]4)cc3)[nH]c2n(CCC)c1=O [Compound P3] | inhibitory effects | 65 | more than 50%
3 | CCCn1c(=O)c2nc(-c3ccc(OCc4nc5cc(F)ccc5[nH]4)cc3)[nH]c2n(CCC)c1=O [Compound P4] | inhibitory effects |  | 
4 | CCCn1c(=O)c2nc(-c3ccc(OCc4nc5cc(C)ccc5[nH]4)cc3)[nH]c2n(CCC)c1=O [Compound P5] | inhibitory effects |  | 
5 | CCOc1ccc(-c2nc3c(N)ncnc3n2CC2CCC2)cc1 [Compound P9] | inhibitory effects |  | 
